# Data: patent US10344279B2, “Methods for the prevention and the treatment of extracapillary glomerulonephritis” (INSERM (Institut National de la Sante et de la Recherche …, priority 2014, dated 2019)
# “Also recorded” adds a separate entry of the source.
# B1: HB-EGF: heparin-binding epidermal growth factor-like growth factor, EGFR ligand (Preprotech) (protein, UniProt Q99075 63-148, looked up)
# Heparin-binding EGF-like …: DLQEADLDLLRVTLSSKPQALATPNKEEHGKRKKKGKGLGKKRDPCLRKYKDFCIHGECKYVKELRAPSCICHPGYHGERCHGLSL
# Assays:
# [1] = test system: phospho-STAT3 (Tyr705); test: Western blot of phospho-STAT3 in primary culture of podocytes; type: cell-based, mouse; conditions: 16 hours; AG1478 1 μM, anti-mIL-6 antibody 10 μg/mL, HB-EGF 10 ng/mL
# Procedure: After 4 days of primary culture, podocytes were trypsinized then plated into μ-Dish 35 mm high with Culture-Insert (Ibidi). Ibidi's wounding inserts were used for cell migration studies. The coverage of the 500-μm gap was assessed after 12 hours of culture and podocyte migration area was quantified using ImageJ software. The effects of HB-EGF (10 ng/mL, Preprotech) or AG1478 (1 μM, Calbiochem) or anti-mIL-6 monoclonal antibody MP5-20F3 (10 μg/mL, eBiosciences) or Stattic (2 μM, Calbiochem) on differentiated podocytes was applied during 16 hours. After stimulation, podocytes were scrapped in Phosphosafe buffer for protein extraction or in RLT buffer for total RNA extraction.
# After extraction from glomeruli or podocytes with lysis buffer, proteins were quantified by BCA protein assay kit (iNtRON Biotechnology). Samples were resolved on 4-12% Bis-Tris Criterion XT gels (Bio-Rad) then transferred to a polyvinylidene difloride membrane. Membranes were incubated with the appropriate primary antibodies: rabbit anti-phospho-EGFR (Tyr1068) (Cell Signaling Technology), rabbit anti-phospho-STAT3 (Tyr705) (Cell Signaling Technology), goat anti-p57 (Santa Cruz Biotechnology). Protein loading was monitored by using the rat anti-tubulin antibody (Abeam). […] Densitometric analysis with ImageJ software was used for quantification.
# [2] = test system: phospho-STAT3 (Tyr705); test: Western blot of phospho-STAT3 in glomeruli / kidney cortex of NTS-challenged mice; type: in vivo; conditions: erlotinib 10 mg/kg/day; NTS-challenged mice
# Procedure: Podocyte-specific disruption of Stat3 mice were generated by crossing podocin-Cre positive mice (63) with Stat3 floxed mice (64) on C57BL6/J background. Their age-matched littermates with no deletion of Stat3 in any cells are considered as controls. […] Stattic (25 mg/kg) was administered in i.p. way every other day for 10 days. 10 weeks old 129S2/SvPasCr male mice were randomly treated with Stattic and were compared to vehicle-treated (DMSO) littermates.
# The glomerulonephritis was induced on male mice (10-12 weeks of age) by intravenous injection of 15 μL of sheep anti-glomerular basement membrane (GBM) nephrotoxic serum (NTS), which was diluted with 85 μL of sterile phosphate buffer solution. Serum injections were repeated twice (on days 2 and 3) at 6 μL/g of body weight and 7 μL/g respectively.
# Mouse kidneys were extracted, minced, and digested in 2 mg/mL collagenase I solution (Gibco) in RPMI 1640 (Invitrogen) at 37° C. for 3 minutes, then filtered through a 70-μm cell strainer and one more through a 40-μm cell strainer. […] Podocyte outgrowth area was quantified at day 4 using ImageJ software.
# After extraction from glomeruli or podocytes with lysis buffer, proteins were quantified by BCA protein assay kit (iNtRON Biotechnology). […] Protein loading was monitored by using the rat anti-tubulin antibody (Abeam). […] Densitometric analysis with ImageJ software was used for quantification.
# [3] = test system: phospho-EGFR (Tyr1068); test: Western blot of phospho-EGFR in kidney cortex of NTS-challenged mice; type: in vivo; conditions: erlotinib 10 mg/kg/day
# Procedure: After extraction from glomeruli or podocytes with lysis buffer, proteins were quantified by BCA protein assay kit (iNtRON Biotechnology). […] Membranes were incubated with the appropriate primary antibodies: rabbit anti-phospho-EGFR (Tyr1068) (Cell Signaling Technology), rabbit anti-phospho-STAT3 (Tyr705) (Cell Signaling Technology), goat anti-p57 (Santa Cruz Biotechnology). Protein loading was monitored by using the rat anti-tubulin antibody (Abeam). Secondary antibodies were donkey-anti rabbit HRP and donkey-anti rabbit HRP (GE Healthcare Life Sciences). […] Densitometric analysis with ImageJ software was used for quantification.
Molecule,STAT3 phosphorylation (Tyr705) in cultured primary podocytes [1],STAT3 phosphorylation in podocytes [2],EGFR phosphorylation in the kidney cortex [3]
COc1cc2ncnc(Nc3cccc(Cl)c3)c2cc1OC [AG1478],blunted; also recorded: decreased,–,–
C#Cc1cccc(Nc2ncnc3cc(OCCOC)c(OCCOC)cc23)c1 [erlotinib],–,blunted,efficiently blocked
B1,enhanced,–,–
